From ChEMBL document CHEMBL3639122, “Heteroarylcarboxylic acid ester derivative” (2015)

Experiments:
Serine protease 1 = Serine protease 1 (Homo sapiens, UniProt P07477); test: Inhibition Assay: Using a 96 well plate (#3915, Costar), a test compound (25 μL) was mixed with 20 μM fluorescence enzyme substrate (Boc-Phe-Ser-Arg-AMC, 50 μL) mixed with 200 mM Tris-HCl buffer (pH 8.0), and human trypsin (Sigma, 25 μL) was added. Using a fluorescence plate reader fmax (Molecular Devices, Inc.), the reaction rate was measured from the time-course changes at excitation wavelength 355 nm and fluorescence wavelength 460 nm.
Enteropeptidase = Enteropeptidase (Homo sapiens, UniProt P98073); test: Inhibition Assay: Using a 96 well plate (#3915, Costar), a test compound (25 μL), 400 mM Tris-HCl buffer (pH 8.0, 25 μL) and 0.5 mg/mL fluorescence enzyme substrate (Gly-Asp-Asp-Asp-Asp-Lys-β-Naphtylamide, 25 μL) were mixed, and recombinant human enteropeptidase (R&D Systems, Inc., 25 μL) was added. Using a fluorescence plate reader fmax (Molecular Devices, Inc.), the reaction rate was measured from the time-course changes at excitation wavelength 320 nm and fluorescence wavelength 405 nm.
Enteropeptidase, sequence (P98073 2-784 limits assumed): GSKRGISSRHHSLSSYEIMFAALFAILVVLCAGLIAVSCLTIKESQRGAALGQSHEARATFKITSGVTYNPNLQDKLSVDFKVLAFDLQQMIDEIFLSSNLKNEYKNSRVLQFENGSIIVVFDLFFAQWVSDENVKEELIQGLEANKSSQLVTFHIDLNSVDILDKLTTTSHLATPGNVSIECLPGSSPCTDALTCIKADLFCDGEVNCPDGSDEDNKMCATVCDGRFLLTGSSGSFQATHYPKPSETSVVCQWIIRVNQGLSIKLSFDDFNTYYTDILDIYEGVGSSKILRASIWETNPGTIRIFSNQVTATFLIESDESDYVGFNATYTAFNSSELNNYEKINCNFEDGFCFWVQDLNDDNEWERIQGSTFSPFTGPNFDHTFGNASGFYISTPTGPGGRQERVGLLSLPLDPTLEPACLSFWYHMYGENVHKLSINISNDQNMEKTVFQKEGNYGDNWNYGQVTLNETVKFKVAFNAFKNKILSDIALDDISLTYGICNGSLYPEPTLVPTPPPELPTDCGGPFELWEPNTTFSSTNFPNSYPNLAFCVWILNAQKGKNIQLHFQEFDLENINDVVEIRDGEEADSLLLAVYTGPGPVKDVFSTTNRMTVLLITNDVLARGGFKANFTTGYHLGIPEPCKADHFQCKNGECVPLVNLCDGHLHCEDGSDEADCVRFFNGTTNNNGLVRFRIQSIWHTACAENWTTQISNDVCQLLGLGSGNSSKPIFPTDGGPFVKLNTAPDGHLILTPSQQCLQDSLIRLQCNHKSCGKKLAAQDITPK
Enteropeptidase, sequence (P98073 785-1019 limits assumed): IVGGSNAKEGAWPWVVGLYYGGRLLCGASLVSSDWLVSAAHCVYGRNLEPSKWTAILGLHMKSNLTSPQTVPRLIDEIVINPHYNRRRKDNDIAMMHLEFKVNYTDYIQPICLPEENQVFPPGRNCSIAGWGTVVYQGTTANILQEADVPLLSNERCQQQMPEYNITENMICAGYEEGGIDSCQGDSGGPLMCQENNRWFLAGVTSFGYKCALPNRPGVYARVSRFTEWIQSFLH

Serine protease 1, sequence (P07477 whole entry): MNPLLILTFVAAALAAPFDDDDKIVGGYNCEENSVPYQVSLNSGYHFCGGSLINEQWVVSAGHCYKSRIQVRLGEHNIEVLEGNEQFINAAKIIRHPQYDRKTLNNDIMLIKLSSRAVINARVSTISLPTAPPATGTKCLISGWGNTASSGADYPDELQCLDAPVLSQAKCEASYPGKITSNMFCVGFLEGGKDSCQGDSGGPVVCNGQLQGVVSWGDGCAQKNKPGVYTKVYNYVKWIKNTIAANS

CCC(CC)(Cc1ccc(C(=O)Oc2ccc(C(=N)N)cc2F)s1)C(=O)N[C@@H](CCC(=O)O)C(=O)O
Ki (Serine protease 1): 2.01 nM | Ki (Enteropeptidase): 0.27 nM
